From patent publication US7230157B1, “Chemical inducible promoter used to obtain transgenic plants with a silent marker and organisms and cells and methods of using same for screening for mutations” (The Rockefeller University, priority 1998, dated 2007) come the findings set out here.

One experiment has as its system tobacco root cells. In words: Shoot regeneration from tobacco root cells transformed with XVE-CKI1. It counts as cell-based. From the text: The XVE-CKI1 vector was also used to transform tobacco root cells. […] The explants were transferred to fresh MBC medium (with or without the inducer) every two weeks. […] The explants grown in the presence of inducer formed green callus. […] This experiment used the same number of root explants with inducer as without inducer. Since 65 calli formed with inducer and only 49 without inducer, overexpression of CKI1 may also increase the efficiency of callus formation.

The subject of a further experiment is tobacco leaf disks. The experiment is described as follows: Shoot regeneration from tobacco leaf disks transfected with XVE-CKI1. Type of experiment: cell-based. Particulars: no externally applied plant hormones. The source says: In addition to the GVG-ipt, pER8-CKI1 (XVE-CKI1) has been used to transfect tobacco leaf disks.
The subject of experiment [1] is Arabidopsis root explants. In words: Regeneration of Arabidopsis root explants transfected with XVE-CKI1. Particulars: MIC medium with 5 μM 17-β-estradiol.
The subject of a further experiment is tobacco leaf discs. The experiment is described as follows: DEX-dependent regeneration and Luc activity of tobacco leaf discs transfected with pTA7002G/ipt/luc. Type of experiment: cell-based, Nicotiana tabacum. Particulars: for Percentage of LUC^+ regenerants / Total number of regenerants per 28 explants: Tobacco. The protocol:
Nicotiana tabacum seeds cultivar SR1 were surface sterilized in 30% commercial bleach containing 0.02% Tween 20 for 10 minutes and washed five times with sterile water. Plants were grown in a tissue culture room at 22° C. at 16 hour light and 8 hour dark cycles. Tobacco transformation was essentially as described by Horsch et al. (1985) and Klee et al. (1987). Leaf discs were prepared from young leaves of four week old plants and the explants were cultured for two days on MB medium (MS salts, B5 vitamins, 20 g/L sucrose, 20 mg/L acetosyringone, 0.2% phytagel, pH 5.7). […] After 20 to 40 days of culturing, regenerated shoots were excised from explants and cultured on MS medium containing IAA to induce root regeneration.
(§1) The explants were transferred to fresh medium every two weeks to maintain constant culture conditions.
(§2) The transformation cassette pTA7002G/ipt/luc (FIG. 12) contained a luc gene under the control of the CaMV 35S promoter (Millar et al., 1992; Benfey and Chua, 1990). Luc activity was measured in order to estimate the number of transgenic shoots using the video imaging system described by Michelet and Chua (1996). Measurements were integrated over 5 minutes and the corresponding background was subtracted from the images (FIGS. 9A-F). Approximately 50% of the regenerants expressed the luc gene (Table 2).
To further characterize the transformation system, we examined the effects of the duration of induction as well as the effects of exogenously applied phytohormones. Time course experiments were performed to determine whether the specificity of the induction of the ipt gene decreases over time due to overproduction and diffusion of cytokinin, which could trigger regeneration events in neighboring, non-transformed cells. […] No significant difference in the percentage of regenerants with detectable Luc activity was found over time. After 20 days, 46% of regenerants had detectable Luc activity and after both 30 and 40 days 53% of regenerants had detectable Luc activity. […] Similar results have been obtained with lettuce.
No significant difference in luciferase activity occurred at different auxin concentrations. At 1.0 mg/mL auxin 45% of regenerants had detectable Luc activity, at 1.5 mg/mL auxin 58% of regenerants had detectable Luc activity, and at 2.0 mg/mL auxin 47% of regenerants had detectable Luc activity.

A further experiment deals with lettuce leaf disks. In words: DEX-dependent regeneration and Luc activity of lettuce leaf disks transfected with pTA7002G/ipt/luc. Type of experiment: cell-based, Lactuca sativa. Particulars: DEX 10 μM. The procedure: Sterilized lettuce […] (Lactuca sativa var. Great Lake #118) were germinated and the seedlings were grown as described for tobacco. Transformation of lettuce leaf discs was performed as described by Curtis et al. (1996) with the exception that cytokinin was omitted from the culture media.
as §1, §2

For the molecule `C[C@]12CC[C@@H]3c4ccc(O)cc4CC[C@H]3[C@@H]1CC[C@@H]2O` [17-β-estradiol], the entries for the “time of shoot initiation after induction” value in the experiment with tobacco root cells (5 μM 17-β-estradiol) and with tobacco leaf disks were 40 to 50 days and 25 to 35 days, respectively. The “white/brown calli that became green and produced shoots” value in the experiment with tobacco root cells (MBC medium with 5 μM 17-β-estradiol) is 13 out of 65. Besides, the “time of culture until small dark green callus appears” value in experiment [1] is given as “about 10 days”. Further, the “time of culture until small shoots appear” value in experiment [1] was “about 15 days”.

On to `C[C@@H]1C[C@H]2[C@@H]3CCC4=CC(=O)C=C[C@]4(C)[C@@]3(F)[C@@H](O)C[C@]2(C)[C@@]1(O)C(=O)CO` [DEX, dexamethasone], for which the “regenerants with detectable Luc activity” value with tobacco leaf discs (10 μM DEX, after 20 days of induction, 54 regenerants) is recorded as 46%; in the experiment with tobacco leaf discs (10 μM DEX, after 30 days of induction), 53%; in the experiment on tobacco leaf discs (10 μM DEX, after 40 days of induction), 53%. Also, the “Percentage of LUC^+ regenerants” value turned out to be 29 in the experiment with tobacco leaf discs (DEX 0.1 μM), 44 in the experiment with tobacco leaf discs (DEX 1 μM), 49 with tobacco leaf discs (DEX 10 μM) and 46 in the experiment with lettuce leaf disks. The “Total number of regenerants per 28 explants” value came out at 139 with tobacco leaf discs (DEX 0.1 μM), 129 with tobacco leaf discs (DEX 1 μM) and 198 in the experiment on lettuce leaf disks.

Turning to auxin, the “regenerants with detectable Luc activity” value is listed as 45% in the experiment on tobacco leaf discs (10 μM DEX, 40 days); 58% with tobacco leaf discs (1.5 mg/mL auxin and 10 μM DEX, 40 days); 47% with tobacco leaf discs (2.0 mg/mL auxin and 10 μM DEX, 40 days).
